IC50 data for eleven molecules are collected here from patent publication US20260226084A1, “DUAL RAF AND TUBULIN INHIBITORS AND METHODS OF USE THEREOF” (Deciphera Pharmaceuticals, LLC, priority 2023, published 2026).

In one test the test system is HCT-116 cells. The test is described as follows: HCT-116 Cell Proliferation Assay. The conditions noted are these: Homo sapiens, HCT-116, HCT-116 cells; Table 2; read-out: Inhibition of cell proliferation in HCT-116 (IC50 class). It is filed as cell-based. Put shortly: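 HCT-116 cells, 375/well in McCoy's 5A with 10% FBS, exposed to serial compound dilutions in triplicate for 67 to 72 hours at 37 °C. Viability read by resazurin fluorescence (ex 540/em 600 nm) after a further 4 to 5 h; IC50 values calculated.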

The next test relates to HPAF-II cells. Put plainly: HPAF-II Cell Proliferation Assay. The class given is cell-based. The conditions noted are these: Homo sapiens, HPAF-II, HPAF-II cells; Table 2; read-out: Inhibition of cell proliferation in HPAF-II (IC50 class). Put shortly:
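HPAF-II cells (750/well) in complete MEM with 10% FBS were exposed to serially diluted compound in triplicate for 115–120 h at 37 °C, 5% CO2. Resazurin was then added for 18–24 h more; fluorescence (ex 540/em 600 nm) gave IC50.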

In a further test the test system is MiaPaca-2 cells. The test is described as follows: MiaPaca-2 Cell Proliferation Assay. It is filed as cell-based. As to conditions: Homo sapiens, MIA PaCa-2, MiaPaca-2 cells; Table 2; read-out: Inhibition of cell proliferation in MiaPaca-2 (IC50 class). The procedure, abridged: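 Viability was read as resazurin fluorescence (540 nm excitation, 600 nm emission) after 5–6 h with dye. Compounds were tested as serial dilutions in triplicate, with IC50 derived from the dose–response.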

Test [1] concerns the target T1, B-Raf kinase (SEQ ID NO: 1) (Homo sapiens, UniProt P15056).
T1 construct: GST (N); purchased Sigma
The test is described as follows: Biochemical Assay for B-Raf (coupled pyruvate kinase/lactate dehydrogenase assay). As to conditions: 1 mM ATP; read-out: BRAF (inhibition of biochemical activity, IC50).

For test [2], the target named is T2, C-Raf kinase (SEQ ID NO: 2) (Homo sapiens, UniProt P04049, Y340D/Y341D).
T2 construct: C-Raf residues 306-end; Y340D, Y341D with; GST (N); purchased Sigma
T2 sequence (P04049 307-648 Y340D/Y341D): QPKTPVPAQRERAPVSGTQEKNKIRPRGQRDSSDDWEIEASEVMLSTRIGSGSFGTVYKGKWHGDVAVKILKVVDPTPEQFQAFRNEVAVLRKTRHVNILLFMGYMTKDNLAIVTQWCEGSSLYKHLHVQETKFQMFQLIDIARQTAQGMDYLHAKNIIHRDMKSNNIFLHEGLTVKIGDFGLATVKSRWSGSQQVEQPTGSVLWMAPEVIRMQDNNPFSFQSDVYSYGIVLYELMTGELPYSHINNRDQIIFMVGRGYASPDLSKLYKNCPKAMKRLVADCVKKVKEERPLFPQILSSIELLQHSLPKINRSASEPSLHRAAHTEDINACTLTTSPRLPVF
Put plainly: Biochemical Assay for C-Raf (coupled pyruvate kinase/lactate dehydrogenase assay). As to conditions: 1 mM ATP; read-out: CRAF (inhibition of biochemical activity, IC50).

The subject of another test is Pa16c cells. The test is described as follows: Pa16c Cell Proliferation Assay. It is filed as cell-based. The conditions noted are these: Table 2, read-out: Inhibition of cell proliferation in Pa16c (IC50 class). The procedure, abridged: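 Mouse Pa16c cells, 750/well in DMEM with 10% FBS, exposed to serially diluted compound in triplicate for 67 to 72 h at 37° C. Viability read by resazurin reduction over a further 18 to 24 h (ex 540/em 600 nm). IC50 calculated from the dose-response.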

T1 sequence (P15056 416-766): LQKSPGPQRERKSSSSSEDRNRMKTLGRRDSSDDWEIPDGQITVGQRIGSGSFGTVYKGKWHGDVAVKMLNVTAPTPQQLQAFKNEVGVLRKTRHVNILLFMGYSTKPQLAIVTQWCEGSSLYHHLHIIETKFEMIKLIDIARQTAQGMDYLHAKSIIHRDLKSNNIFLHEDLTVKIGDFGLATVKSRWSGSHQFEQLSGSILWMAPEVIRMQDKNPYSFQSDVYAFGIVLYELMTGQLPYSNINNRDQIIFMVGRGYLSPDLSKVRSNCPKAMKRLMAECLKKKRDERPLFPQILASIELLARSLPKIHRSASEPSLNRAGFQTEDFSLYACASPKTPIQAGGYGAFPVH

`Cc1ccc(NC(=O)c2cc(C(F)(F)F)cnn2)cc1-c1ccnc(-c2ccnc(NC(=O)C3CN(C)CC3(F)F)c2)c1` (stereo not drawn) [Example 94, N-(3-(2′-(4,4-difluoro-1-methylpyrrolidine-3-carboxamido)-[2,4′-bipyridin]-4-yl)-4-methylphenyl)-5-(trifluoromethyl)pyridazine-3-carboxamide]: the IC50 in the test on HCT-116 cells was 0.1 to 0.5 µM; in the test on HPAF-II cells, 1 to 10 µM; with MiaPaca-2 cells, 0.5 to 1 µM; in test [1], 0.1 to 0.5 µM; in test [2], less than 0.1 µM; with Pa16c cells it was 1 to 10 µM.

With `Cc1ccc(NC(=O)c2cc(C3CC3)cnn2)cc1-c1cncc(-c2cc(NC(=O)C3CC3)ncn2)c1` [Example 69], the IC50 in the test with HCT-116 cells is 0.1 to 0.5 µM; with HPAF-II cells, 0.5 to 1 µM; in the test with MiaPaca-2 cells, 1 to 10 µM; in test [1] it was less than 0.1 µM; in test [2], less than 0.1 µM; with Pa16c cells it was 1 to 10 µM.

Turning to `Cc1ccc(NC(=O)c2cc(C(C)C)cnn2)cc1-c1ccnc(-c2ccnc(NC(=O)C3CC3)c2)c1` [Example 38], the IC50 with HCT-116 cells was 0.1 to 0.5 µM; in the test with HPAF-II cells, 0.1 to 0.5 µM; in the test with MiaPaca-2 cells it was 0.1 to 0.5 µM; in test [1], less than 0.1 µM; in test [2], less than 0.1 µM; in the test on Pa16c cells, 0.5 to 1 µM.

As to `Cc1ncc(NC(=O)c2cc(C(F)(F)F)cnn2)cc1-c1ccnc(-c2ccnc(NC(=O)C3CC3)c2)c1` [Example 34], the IC50 with HCT-116 cells was 1 to 10 µM; in the test on HPAF-II cells it was 1 to 10 µM; in the test on MiaPaca-2 cells it was 1 to 10 µM; in test [1], less than 0.1 µM; in test [2] it was less than 0.1 µM; in the test on Pa16c cells, 1 to 10 µM.

For the molecule `Cc1cnc(NC(=O)c2cc(C(F)(F)F)cnn2)cc1-c1ccnc(-c2ccnc(NC(=O)C3CC3)c2)c1` [Example 36], the IC50 in the test with HCT-116 cells was 0.1 to 0.5 µM; with HPAF-II cells, 1 to 10 µM; in the test on MiaPaca-2 cells it was 1 to 10 µM; in test [1], less than 0.1 µM; in test [2], less than 0.1 µM; with Pa16c cells it was 1 to 10 µM.

As for `Cc1ccc(NC(=O)c2cc(C3CC3)cnn2)cc1-c1cc(OCCO)nc(-c2ccnc(NC(=O)C3CC3)c2)c1` [Example 104], the IC50 is 0.1 to 0.5 µM with HCT-116 cells; 0.1 to 0.5 µM with HPAF-II cells; 0.5 to 1 µM in the test on MiaPaca-2 cells; less than 0.1 µM in test [1]; less than 0.1 µM in test [2]; 0.1 to 0.5 µM in the test with Pa16c cells.

For the molecule `COCC(=O)Nc1cc(-c2nccc(-c3cc(NC(=O)c4cc(C(F)(F)F)cnn4)ccc3C)n2)ccn1` [Example 10], the IC50 in the test on HCT-116 cells was 0.5 to 1 µM; in the test with HPAF-II cells, 0.5 to 1 µM; in the test on MiaPaca-2 cells, 1 to 10 µM; in test [1], less than 0.1 µM; in test [2], less than 0.1 µM; in the test with Pa16c cells it was 1 to 10 µM.

Regarding `Cc1ccc(NC(=N)c2cc(C(F)(F)F)cnn2)cc1-c1ccnc(-c2ccnc(NC(=O)C3CC3)c2)c1` [Example 86], the IC50 was 1 to 10 µM with HCT-116 cells; 1 to 10 µM with HPAF-II cells; 1 to 10 µM with MiaPaca-2 cells; 0.1 to 0.5 µM in test [1]; less than 0.1 µM in test [2]; 1 to 10 µM in the test with Pa16c cells.

Take `Cc1ccc(NC(=O)c2cnc(C(F)(F)F)nc2)cc1-c1cc(N[C@H](C)CO)nc(-c2cn[nH]c2)c1` [Example 133]: the IC50 is 0.1 to 0.5 µM with HCT-116 cells; 1 to 10 µM with HPAF-II cells; 0.1 to 0.5 µM in the test on MiaPaca-2 cells; 0.1 to 0.5 µM in test [1]; less than 0.1 µM in test [2]; 1 to 10 µM in the test with Pa16c cells.

Consider `Cc1ccc(NC(=O)c2cc(C3CCC3)cnn2)cc1-c1ccnc(-c2ccnc(NC(=O)C3CC3)c2)c1` [Example 44], for which the IC50 with HCT-116 cells is less than 0.1 µM; in the test with HPAF-II cells it was 0.1 to 0.5 µM; in the test with MiaPaca-2 cells it was less than 0.1 µM; in test [1] it was less than 0.1 µM; in test [2], less than 0.1 µM; in the test on Pa16c cells, less than 0.1 µM.

Turning to `Cc1ccc(NC(=O)c2cc(C(F)(F)F)cnn2)cc1-c1cc(N[C@H](C)CO)nc(-c2cn[nH]c2C)c1` [Example 120], the IC50 in the test on HCT-116 cells is 0.1 to 0.5 µM; in the test on HPAF-II cells, 0.1 to 0.5 µM; with MiaPaca-2 cells it was less than 0.1 µM; in test [1] it was less than 0.1 µM; in test [2] it was less than 0.1 µM; in the test on Pa16c cells it was 0.1 to 0.5 µM.
